From US8614194B1, “Anionic cell penetrating peptide and its use for intracellular delivery” (Kaohsiung Medical University, priority 2012, dated 2013)
No end group written: not given here.

How the values were obtained:
Assay type in all cases: cell-based, human
hADSCs = experiment: Fluorescence microscopy of translocation into cells; settings: FITC-labeled, 10 μM, 30 minutes, 37° C., FIG. 5
Protocol: (§1) Cells are treated with 10 μM test compound for 30 minutes at 37° C., washed using PBS, and then treated with 0.5% trypsin. Cells are labeled with 5 μg/ml Hoechst 33342 (Invitrogen) and PKH26-GL (Sigma) respectively for nuclei and membrane labeling. Standard protocols are followed according to the kit instructions. Cells are lastly suspended again in PBS for fluorescence images. Fluorescence images are captured by Olympus, CellR and Olympus FV1000 confocal microscope using glass-bottom culture slides with excitation by 488 nm (FITC-labeled peptide) laser line.

HeLa cells [1] = experiment: as above; settings: FITC-labeled, 10 μM, 30 minutes, 37° C., FIG. 4
Protocol: as §1

HeLa cells [2] = experiment: Endocytosis inhibition analysis (uptake with inhibitors); settings: 10 μM, 37° C., 30 minutes, inhibitors NaN3 and 2DG, EIPA, NaClO3, FIG. 8(A)
Protocol: For inhibition of endocytosis, HeLa cells are treated with 200 mM sodium azide (NaN3; Sigma) and 2-deoxy-D-glucose (2DG; Sigma) for 1 hour to deplete intracellular ATP pools and influence cell metabolism. hADSCs are treated with 10 mM NaN3 and 2DG for 1 h with the same purpose. For inhibition of macropinosome formation, HeLa cells and hADSCs are treated with 3 mM 5-(N-ethyl-N-isopropyl) amiloride (EIPA, Sigma) for 10 minutes. For inhibition of proteoglycan sulfation, HeLa cells and hADSCs are treated with 600 mM sodium chlorate (NaClO3, Sigma) for 2 days. After this treatment of inhibitors, cells are treated with 10 μM test compound (200 μl), and then incubated at 37° C. for 30 minutes. 10^4 cells in 0.1 ml medium are seeded into each well of a 24-well plate, and then trypsin (200 μl) is added into each well. Cells are transferred to a microtube and incubated for 5 minutes. Cells are processed for flow cytometry as described above after being added with 200 μl of medium and washed with PBS.

Substance | translocation into cells (hADSCs) | translocation into cells (HeLa cells [1]) | route of internalization, uptake combined with inhibitors (HeLa cells [2])
DDDDDD [D6, peptide of six aspartate residues] | crosses into ADSCs |  | 
KD6K-simvastatin: peptide KDDDDDDK carrying simvastatin and PEG500; Lys capped by acetic anhydride or FITC (also: carries simvastatin and PEG500, Lys capped by acetyl or FITC) | crosses into ADSCs |  | 
AADDDD [A2D4, two alanine residues linked to the N terminal of four aspartate residues] | crosses into ADSCs |  | 
KDDDDDD [KD6, one lysine residue linked to the N terminal of six aspartate residues] | crosses into ADSCs |  | 
AAAADD [A4D2, four alanine residues linked to the N terminal of two aspartate residues] | crosses into ADSCs |  | 
6-aminocaproic acid-R7 [ACP-R7] | crosses into ADSCs | crosses into HeLa cells | internalized by macropinocytosis, endocytosis, and direct translocation resulted from proteoglycan sulfation
